Patent publication US6664260B2, “Heterocyclic ether substituted imidazoquinolines” (3M Innovative Properties Company, priority 2000, dated 2003)

Experiments:
[1] = tested on: interferon (α); test: Cytokine Induction in Human Cells: interferon (α) secreted by PBMCs, ELISA; assay type: cell-based; settings: PBMC, incubated 18 to 24 hours, lowest concentration found to induce interferon
From the text: (§1) An in vitro human blood cell system is used to assess cytokine induction. Activity is based on the measurement of interferon and tumor necrosis factor (α) (IFN and TNF, respectively) secreted into culture media as described by Testerman et. al. In “Cytokine Induction by the Immunomodulators Imiquimod and S-27609”, Journal of Leukocyte Biology, 58, 365-372 (September, 1995).
(§2) Whole blood from healthy human donors is collected by venipuncture into EDTA vacutainer tubes. Peripheral blood mononuclear cells (PBMCs) are separated from whole blood by density gradient centrifugation using Histopaque®-1077. The PBMCs are washed twice with Hank's Balanced Salts Solution and then are suspended at 3-4×10^6 cells/mL in RPMI complete. The PBMC suspension is added to 48 well flat bottom sterile tissue culture plates (Costar, Cambridge, Mass. or Becton Dickinson Labware, Lincoln Park, N.J.) containing an equal volume of RPMI complete media containing test compound.
(§3) The compounds are solubilized in dimethyl sulfoxide (DMSO). The DMSO concentration should not exceed a final concentration of 1% for addition to the culture wells
(§4) The solution of test compound is added at 60 μM to the first well containing RPMI complete and serial 3 fold dilutions are made in the wells. The PBMC suspension is then added to the wells in an equal volume, bringing the test compound concentrations to the desired range (0.12 to 30 μM). The final concentration of PBMC suspension is 1.5-2×10^6 cells/mL. The plates are covered with sterile plastic lids, mixed gently and then incubated for 18 to 24 hours at 37° C. in a 5% carbon dioxide atmosphere.
(§5) Following incubation the plates are centrifuged for 5-10 minutes at 1000 rpm (˜200×g) at 4° C. The cell-free culture supernatant is removed with a sterile polypropylene pipet and transferred to sterile polypropylene tubes. Samples are maintained at −30 to −70° C. until analysis. The samples are analyzed for interferon (α) and for tumor necrosis factor (α) by ELISA.
Interferon (α) concentration is determined by ELISA using a Human Multi-Species kit from PBL Biomedical Laboratories, New Brunswick, N.J. Results are expressed in pg/mL.
(§6) The table below lists the lowest concentration found to induce interferon and the lowest concentration found to induce tumor necrosis factor for each compound.

[2] = tested on: tumor necrosis factor (α); test: Cytokine Induction in Human Cells: tumor necrosis factor (α) secreted by PBMCs, ELISA; assay type: cell-based; parameters: key to Lowest Effective Concentration (μM) Tumor Necrosis Factor: A “*” indicates that no induction was seen at any of the tested concentrations; generally the highest tested concentration was 10 or 30 μM; settings: incubated 18 to 24 hours, lowest concentration found to induce tumor necrosis factor; for minimal effective concentration: PBMC
From the text: as §1, §2, §3, §4, §5
Tumor necrosis factor (α) (TNF)concentration is determined using ELISA kits available from Genzyme, Cambridge, Mass.; R&D Systems, Minneapolis, Minn.; or Pharmingen, San Diego, Calif. Results are expressed in pg/mL.
as §6

melting point [°C]	Compound	minimal effective concentration [1] [µM]	minimal effective concentration [2] [µM]	Lowest Effective Concentration (μM) Tumor Necrosis Factor [2]
138 to 140	Nc1nc2ccccc2c2c1ncn2CCOCCCc1ccccn1 [Example 6, 1-[2-(3-Pyridin-2-ylpropoxy)ethyl]-1H-imidazo[4,5-c]quinolin-4-amine]	0.12	1.11	–
134 to 135	Nc1nc2ccccc2c2c1ncn2CCOCCCc1nccs1 [Example 7, 1-{2-[3-(1,3-Thiazol-2-yl)propoxy]ethyl}-1H-imidazo[4,5-c]quinolin-4-amine]	0.37	–	*
182 to 184	Nc1nc2ccccc2c2c1ncn2CCOCc1cn(CSc2ccccc2)nn1 [Example 11, 1-[2-({1-[(Phenylsulfanyl)methyl]-1H-1,2,3-triazol-4-yl}methoxy)ethyl]-1H-imidazo[4,5-c]quinoline-4-amine]	1.11	0.04	–
196 to 198	Nc1nc2ccccc2c2c1ncn2CCOCc1ccccn1 [Example 14, 1-[2-(Pyridin-2-ylmethoxy)ethyl]-1H-imidazo[4,5-c]quinolin-4-amine]	0.12	0.37	–
159 to 161	Nc1nc2ccccc2c2c1ncn2CCOCc1ccncc1 [Example 15, 1-[2-(Pyridin-4-ylmethoxy)ethyl]-1H-imidazo[4,5-c]quinolin-4-amine]	1.11	3.33	–
213 to 215	Cc1noc(C)c1COCCn1cnc2c(N)nc3ccccc3c21 [Example 16, 1-{2-[(3,5-Dimethylisoxazol-4-yl)methoxy]ethyl}-1H-imidazo[4,5-c]quinolin-4-amine]	3.33	10	–
148 to 150	Nc1nc2ccccc2c2c1ncn2CCOCC#Cc1cccs1 [Example 30, 1-{2-[(3-thien-2-ylprop-2-ynyl)oxy]ethyl}-1H-imidazo[4,5-c]quinolin-4-amine]	0.37	3.33	–
243 to 245	Cn1c(COCCn2cnc3c(N)nc4ccccc4c32)cc2ccccc21 [Example 31, 1-{2-[(1-methyl-1H-indol-2-yl)methoxy]ethyl}-1H-imidazo[4,5-c]quinolin-4-amine]	3.33	3.33	–
130.1 to 131.6	Nc1nc2ccccc2c2c1ncn2CCOCCCc1cccs1 [Example 32, 1-[2-(3-thien-2-ylpropoxy)ethyl]-1H-imidazo[4,5-c]quinolin-4-amine]	0.01	1.11	–
145 to 146	Cc1nc2c(N)nc3ccccc3c2n1CCOCCCc1cccnc1 [Example 34, 2-Methyl-1-[2-(3-pyridin-3-ylpropoxy)ethyl]-1H-imidazo[4,5-c]quinoline-4-amine]	0.01	0.04	–
